PMC3728144, “Synthesis, reactions and biological activity of some new bis-heterocyclic ring compounds containing sulphur atom” (Chemistry Central Journal, 2013)
Where two headings read alike, the source gives them in different places.

Experiments:
[1] = system: PC3 cells (Prostrate Cancer); experiment: Anticancer (cytotoxic) activity, MTT colorimetric assay; assay type: cell-based; conditions: compounds 1-30 μM, n = 3, read-out: Anticancer activity (PC-3 cell line) IC50 ± SEM
Method: (§1) Various In vitro assays were performed to the assessment of biological activity of newly synthesized compounds. Results were presented here as means ± standard error from triplicate (n = 3) observation. IC50 values were calculated by using EZ-FIT, Enzyme kinetics software by Perrella Scientific.
Cytotoxic activity of compounds was evaluated in 96-well flat-bottomed microplates by using the standard MTT (3-[4, 5-dimethylthiazole-2-yl]-2, 5-diphenyl-tetrazolium bromide, MP) colorimetric assay. For this purpose, PC3 cells (Prostrate Cancer) were cultured in Dulbecco’s Modified Eagle Medium, supplemented with 10% of fetal bovine serum (FBS, PAA), 100 IU/mL of penicillin and 100 μ g/mL of streptomycin in 75 cm^2 flasks, and kept in 5% CO2 incubator at 37°C. Exponentially growing cells were harvested, counted with haemocytometer and diluted with a particular medium with 5% FBS. Cell culture with the concentration of 1x10^5 cells/mL was prepared and introduced (100 μL/well) into 96-well plates. After overnight incubation, medium was removed and 200 μL of fresh medium was added with different concentrations of compounds (1-30 μM). Stock solution, 20 mM of compounds were prepared in 100% DMSO and final concentration of DMSO at 30 μM is 0.15% .After 48 hrs, 200 μL MTT (0.5 mg/mL) was added to each well and incubated further for 4 hrs. Subsequently, 100 μL of DMSO was added to each well. The extent of MTT reduction to formazan within cells was calculated by measuring the absorbance at 570 nm, using a micro plate reader (Spectra Max plus, Molecular Devices, CA, USA). The cytotoxicity was recorded as concentration causing 50% growth inhibition (IC50) for PC3 cells. The percent inhibition was calculated by using the following formula:
% inhibition = 100-((mean of O.D of test compound – mean of O.D of negative control)/ (mean of O.D of positive control – mean of O.D of negative control)*100).
The results (% inhibition) were processed by using Soft- Max Pro software (Molecular Device, USA).

β-Glucuronidase = biological target: T1, β-Glucuronidase (Escherichia coli, UniProt P05804); experiment: In vitro β-glucuronidase inhibition assay; assay type: biochemical; conditions: p-nitrophenyl-β-D-glucuronide substrate, 37°C, 405 nm; NA = not active, failed to show 50% or more inhibition at 500 μM or more; read-out: ß-Glucuronidase inhibition IC50 ± SEM
T1 construct: purchased Sigma Aldrich G7396-25KU
T1 sequence (P05804 whole entry): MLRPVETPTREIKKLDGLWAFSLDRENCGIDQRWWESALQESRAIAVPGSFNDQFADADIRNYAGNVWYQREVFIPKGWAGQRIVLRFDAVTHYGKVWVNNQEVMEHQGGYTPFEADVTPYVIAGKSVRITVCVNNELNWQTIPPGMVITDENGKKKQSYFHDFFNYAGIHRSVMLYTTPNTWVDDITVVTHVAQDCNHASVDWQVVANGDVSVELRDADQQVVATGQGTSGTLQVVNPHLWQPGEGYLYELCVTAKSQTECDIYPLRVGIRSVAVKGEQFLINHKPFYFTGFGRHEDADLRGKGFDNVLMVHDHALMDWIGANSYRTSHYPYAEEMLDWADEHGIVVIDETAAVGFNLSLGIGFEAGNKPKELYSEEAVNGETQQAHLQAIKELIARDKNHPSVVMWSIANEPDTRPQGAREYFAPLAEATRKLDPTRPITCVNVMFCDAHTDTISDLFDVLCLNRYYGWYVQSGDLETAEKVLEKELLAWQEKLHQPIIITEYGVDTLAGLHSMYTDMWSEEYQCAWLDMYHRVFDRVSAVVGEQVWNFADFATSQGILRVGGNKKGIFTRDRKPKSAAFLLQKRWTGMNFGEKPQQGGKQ
Method: as §1
β-Glucuronidase inhibitory activity was determined by the spectrophotometric method by measuring the absorbance at 405 nm of p-nitrophenol formed from the substrate (p-nitrophenyl-β-D-glucuronide N1627-250 mg (Sigma Aldrich). The total reaction volume was 250 μL. The compound (5 μL) was dissolved in DMSO (100%), which becomes 2% in the ultimate assay (250 μL) and the similar conditions were used for standard (D-saccharic acid 1, 4-lactone, Sigma Aldrich). The reaction mixture contained 185 μL of 0.1 M acetate buffer, 5 μL of test compound solution, 10 μL of (1U) enzyme solution (G7396-25KU, Sigma Aldrich) was incubated at 37°C for 30 min. The plates were read on a multiplate reader (SpectraMax plus 384) at 405 nm after the addition of 50 μL of 0.4 mM p-nitrophenyl-β-D-glucuronide. All assays were performed in triplicate. IC50 Values were calculated by using EZ-Fit software (Perrella Scientific Inc., Amherst, MA, U.S.A.). These values are the mean of three independent readings.

[2] = DPPH radical scavenging antioxidant assay; conditions: DPPH 300 μM, half an hour at 37°C, 515 nm, NA = not active, failed to show 50% or more inhibition at 500 μM or more, read-out: DPPH radical scavenging assay IC50 ± SEM
Method: as §1
Test samples were allowed to react with stable free radical, 1, 1-diphenyl-2-picrylhydrazyl radical (DPPH, Wako Chemicals USA, Inc.)) for half an hour at 37°C. Various concentrations of test samples (prepared in DMSO) were incubated with DPPH (300 μM; prepared in ethanol). After incubation, decrease in absorption was measured at 515 nm using a microplate reader (SpectraMax plus 384). Percentage radical scavenging activity (% RSA) by samples was determined, in comparison with a DMSO- treated control group.% Radical scavenging activity was calculated by using the formula given in statistical analysis section.

| melting point [°C] | Structure (SMILES) | IC50 ([1]; Homo sapiens, PC-3, 48 h) [µM] | further results |
| --- | --- | --- | --- |
| > 320 | Cc1c(-c2csc(CC#N)n2)sc2sc(-c3csc(CC#N)n3)c(-c3ccccc3)c12 [Compound 3, 2,2'-(4,4'-(3-Methyl-4-phenylthieno[2,3-b]thiophene-2,5-diyl)bis(thiazole-4,2-diyl)) diacetonitrile] | > 30 |  |
| 260 to 261 | Cc1c(-c2csc(N)n2)sc2sc(-c3csc(N)n3)c(-c3ccccc3)c12 [Compound 8b, 4,4'-(3-Methyl-4-phenylthieno[2,3-b]thiophene-2,5-diyl)dithiazol-2-amine] | 24.2 ± 0.29 |  |
| > 320 | Cc1c(-c2c[nH]c(N)n2)sc2sc(-c3c[nH]c(N)n3)c(-c3ccccc3)c12 [Compound 8c, 4,4'-(3-Methyl-4-phenylthieno[2,3-b]thiophene-2,5-diyl)bis(1H-imidazol-2-amine)] |  |  |
| > 320 | Cc1c(C(=O)CNc2ccccc2)sc2sc(C(=O)CNc3ccccc3)c(-c3ccccc3)c12 [Compound 9a, 1,1'-(3-Methyl-4-phenylthieno[2,3-b]thiophene-2,5-diyl)bis(2-(phenylamino)ethanone)] | > 30 |  |
| > 320 | Cc1c(C(=O)CNc2ccc(Cl)cc2)sc2sc(C(=O)CNc3ccc(Cl)cc3)c(-c3ccccc3)c12 [Compound 9b, 1,1'-(3-Methyl-4-phenylthieno[2,3-b]thiophene-2,5-diyl)bis(2-(4-chlorophenylamino)ethanone)] | > 30 |  |

Second part, the molecule before the results:

| Structure (SMILES) | melting point [°C] | IC50 ([1]; Homo sapiens, PC-3, 48 h) [µM] | further results |
| --- | --- | --- | --- |
| Cc1c(-c2csc(C(C#N)=Cc3ccccc3)n2)sc2sc(-c3csc(C(C#N)=Cc4ccccc4)n3)c(-c3ccccc3)c12 [Compound 4a, 2-(4-(5-(2-(1-Cyano-2-phenylvinyl)thiazol-4-yl)-3-methyl-4-phenylthieno[2,3-b]thiophen-2-yl)thiazol-2-yl)-3-phenylacrylonitrile] | 220 to 221 | > 30 |  |
| Cc1c(-c2csc(C(C#N)=Cc3ccc(Cl)cc3)n2)sc2sc(-c3csc(C(C#N)=Cc4ccc(Cl)cc4)n3)c(-c3ccccc3)c12 [Compound 4b, 3-(4-Chlorophenyl)-2-(4-(5-(2-(2-(4-chlorophenyl)-1-cyanovinyl)thiazol-4-yl)-3-methyl-4-phenylthieno[2,3-b]thiophen-2-yl)thiazol-2-yl)acrylonitrile] | 167 to 168 | > 30 |  |
| COc1ccc(C=C(C#N)c2nc(-c3sc4sc(-c5csc(C(C#N)=Cc6ccc(OC)cc6)n5)c(-c5ccccc5)c4c3C)cs2)cc1 [Compound 4c, 2-(4-(5-(2-(1-Cyano-2-(4-methoxyphenyl)vinyl)thiazol-4-yl)-3-methyl-4-phenylthieno[2,3-b]thiophen-2-yl)thiazol-2-yl)-3-(4-methoxyphenyl)acrylonitrile] | 238 to 239 |  |  |
| Cc1c(C2=C(C#N)C=NC2)sc2sc(C3=C(C#N)C=NC3)c(-c3ccccc3)c12 [Compound 5, 3-(5-(4-Cyano-2H-pyrrol-3-yl)-3-methyl-4-phenylthieno[2,3-b]thiophen-2-yl)-2H-pyrrole-4-carbonitrile] | > 320 | > 30 | IC50 (β-Glucuronidase): 0.13 ± 0.019 µM |
| Cc1c(-c2cn3c(nc4ccccc43)[nH]2)sc2sc(-c3cn4c(nc5ccccc54)[nH]3)c(-c3ccccc3)c12 [Compound 6, 5,5'-(3-Methyl-4-phenylthieno[2,3-b]thiophene-2,5-diyl)bis(1H-imidazo[1,2a]benzimidazole)] | > 320 |  |  |
| Cc1c(-c2cn3[nH]cnc3n2)sc2sc(-c3cn4[nH]cnc4n3)c(-c3ccccc3)c12 [Compound 7, 5,5'-(3-Methyl-4-phenylthieno[2,3-b]thiophene-2,5-diyl)bis(1H-imidazo[1,2-b] [1,2, 4]triazole)] | > 320 |  |  |
| Cc1c(-c2coc(N)n2)sc2sc(-c3coc(N)n3)c(-c3ccccc3)c12 [Compound 8a, 4,4'-(3-Methyl-4-phenylthieno[2,3-b]thiophene-2,5-diyl)dioxazol-2-amine] | > 320 | > 30 | IC50 (β-Glucuronidase): 1.2 ± 0.0785 µM |
| O=C(O)[C@@H](O)[C@H]1OC(=O)[C@H](O)[C@H]1O [D-Saccharic acid 1,4-lactone, reference compound] |  |  | IC50 (β-Glucuronidase): 45.8 µM |
| COc1cccc2c1C(=O)c1c(O)c3c(c(O)c1C2=O)C[C@@](O)(C(=O)CO)C[C@@H]3O[C@H]1C[C@H](N)[C@H](O)[C@H](C)O1 [Doxorubicin, reference compound] |  | 0.912 ± 0.12 | IC50 ([1]; 48 hrs): 0.91 µM |
| CC(=O)N[C@@H](CS)C(=O)O [N-Acetylcysteine] |  |  | IC50 ([2]; listed as N-acetylcystein): 106 ± 1.1 µM; IC50 [2]: 106 µM |
